Data: the supplement of paper PMC10307832

Tests used:
Assay in all cases: relative viability (nuclei count vs DMSO), 5 days (fraction); higher = more cells survive
Gemcitabine = compound: Nc1ccn([C@@H]2O[C@H](CO)[C@@H](O)C2(F)F)c(=O)n1 [Gemcitabine]
Outline: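 Nuclei counted with MetaXpress define viability as the ratio of treated to vehicle wells, given as a median across plates. The lung cancer cell lines were in 1536-well plates, pinned with five √10-spaced library-drug doses and imaged at 4× after 5 days and Hoechst staining. Plates passed with control CV below 25% and at least one doubling.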

Gemcitabine + Trametinib = compound: Nc1ccn([C@@H]2O[C@H](CO)[C@@H](O)C2(F)F)c(=O)n1 [Gemcitabine] + CC(=O)Nc1cccc(-n2c(=O)n(C3CC3)c(=O)c3c(Nc4ccc(I)cc4F)n(C)c(=O)c(C)c32)c1 [Trametinib] (partner 0.02 µM)
Outline: (§1)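 Relative viability divides the nuclei count in treated wells by that in vehicle wells. Lung cancer cell lines were seeded in 1536-well plates, dosed by pin tool the next day, and fixed and stained after 5 days in one step with final 0.05% Triton X-100, 1% formaldehyde and 1 ug/ml Hoechst. Dosing was a single drug or a fixed anchor-drug dose plus five library-drug doses (not always all listed) in √10 steps, and values are medians of duplicate plates imaged at 4×.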

Gemcitabine + Phenformin = compound: Nc1ccn([C@@H]2O[C@H](CO)[C@@H](O)C2(F)F)c(=O)n1 [Gemcitabine] + N=C(N)NC(=N)NCCc1ccccc1 [Phenformin] (partner 250 µM)
Outline: as §1

Gemcitabine + Olaparib = compound: Nc1ccn([C@@H]2O[C@H](CO)[C@@H](O)C2(F)F)c(=O)n1 [Gemcitabine] + O=C(c1cc(Cc2n[nH]c(=O)c3ccccc23)ccc1F)N1CCN(C(=O)C2CC2)CC1 [Olaparib] (partner 8 µM)
Outline: as §1

Cell Line	relative viability (Gemcitabine; 0.001 µM)	relative viability (Gemcitabine; 0.003162 µM)	relative viability (Gemcitabine; 0.01 µM)	relative viability (Gemcitabine; 0.03162 µM)	relative viability (Gemcitabine; 0.1 µM)	relative viability (Gemcitabine + Trametinib; first compound 0.001 µM)	relative viability (Gemcitabine + Trametinib; first compound 0.003162 µM)	relative viability (Gemcitabine + Trametinib; first compound 0.01 µM)	relative viability (Gemcitabine + Trametinib; first compound 0.03162 µM)	relative viability (Gemcitabine + Trametinib; first compound 0.1 µM)	relative viability (Gemcitabine + Phenformin; first compound 0.001 µM)	relative viability (Gemcitabine + Phenformin; first compound 0.003162 µM)	relative viability (Gemcitabine + Phenformin; first compound 0.01 µM)	relative viability (Gemcitabine + Phenformin; first compound 0.03162 µM)	relative viability (Gemcitabine + Phenformin; first compound 0.1 µM)	relative viability (Gemcitabine + Olaparib; first compound 0.001 µM)	relative viability (Gemcitabine + Olaparib; first compound 0.003162 µM)	relative viability (Gemcitabine + Olaparib; first compound 0.01 µM)	relative viability (Gemcitabine + Olaparib; first compound 0.03162 µM)	relative viability (Gemcitabine + Olaparib; first compound 0.1 µM)
HCC-44	0.99	0.815	0.935	0.527	0.264	1.11	1.02	1.02	0.895	0.42	0.156	0.139	0.101	0.098	0.102	0.932	0.988	0.931	0.704	0.391
NCI-H460	1.03	0.963	0.774	0.0431	0.0112	0.105	0.211	0.0498	0.0169	0.0076	0.589	0.565	0.0724	0.0156	0.0098	0.529	0.426	0.333	0.0343	0.022
SK-LU-1	1.01	0.479	0.243	0.191	0.228	0.512	0.373	0.267	0.161	0.241	0.578	0.272	0.154	0.115	0.124	0.431	0.188	0.181	0.183	0.168
SW 900	0.802	0.424	0.153	0.134	0.141	0.722	0.609	0.119	0.142	0.13	0.654	0.181	0.0793	0.0687	0.0927	0.837	0.543	0.165	0.168	0.134
NCI-H322M	0.813	0.375	0.295	0.281	0.304	0.47	0.327	0.394	0.382	0.385	0.635	0.378	0.288	0.334	0.268	0.564	0.445	0.356	0.369	0.411
EKVX	0.943	0.766	0.461	0.201	0.139	0.394	0.243	0.13	0.161	0.11	0.233	0.194	0.119	0.132	0.109	0.898	0.672	0.289	0.174	0.11
NCI-H1734	0.984	0.856	0.263	0.121	0.125	0.705	0.44	0.193	0.135	0.1	0.337	0.29	0.163	0.0972	0.106	0.535	0.348	0.183	0.111	0.102
NCI-H522	1.12	0.812	0.418	0.42	0.388	0.705	0.628	0.36	0.347	0.319	0.653	0.524	0.47	0.396	0.384	0.639	0.641	0.323	0.306	0.3
NCI-H520	1.05	0.942	0.43	0.22	0.165	0.848	0.752	0.159	0.143	0.144	0.536	0.554	0.225	0.163	0.154	0.388	0.48	0.174	0.159	0.132
EPLC-272H	1.05	1.01	0.591	0.113	0.0839	0.301	0.301	0.248	0.18	0.106	0.348	0.324	0.174	0.158	0.0709	0.967	0.545	0.221	0.0733	0.0557
UMC-11	1.04	0.992	0.974	0.869	0.375	0.627	0.635	0.716	0.609	0.161	0.384	0.349	0.328	0.275	0.185	0.41	0.496	0.356	0.38	0.247
NCI-H1792	1.06	0.43	0.165	0.127	0.0999	0.414	0.183	0.0715	0.0564	0.0677	0.291	0.104	0.0944	0.119	0.0679	0.578	0.0978	0.0544	0.112	0.0454
NCI-H1993	0.974	0.958	0.604	0.441	0.558	0.508	0.457	0.503	0.351	0.438	0.461	0.485	0.439	0.421	0.407	1.01	0.908	0.519	0.412	0.428
NCI-H596	1.32	0.929	0.564	0.31	0.283	0.918	0.593	0.392	0.336	0.321	0.74	0.612	0.489	0.262	0.306	0.733	0.714	0.384	0.336	0.311
NCI-H1793	1.02	1.04	0.565	0.168	0.146	0.385	0.45	0.256	0.187	0.15	0.38	0.324	0.223	0.166	0.13	0.807	0.93	0.159	0.137	0.105
NCI-H1395	0.779	0.594	0.422	0.365	0.364	1.01	0.841	0.554	0.424	0.359	0.403	0.417	0.321	0.315	0.318	0.438	0.452	0.423	0.351	0.34
